Data taken from patent publication US20220290106A1, “Method for Promoting Cell Proliferation, and Method for Preparing Cell Cluster” (Osaka University, priority 2019, published 2022).

Columns and labels:
MSC cell aggregates [1] = assay: Test Example 7: aggregate culture 4 of MSCs (3-DG or GO); format: cell-based; conditions: for cell proliferation rate of the MSC cell aggregate: cells counted Day 4 (before treatment) and Day 9, 24 hours treatment, then 10 μM ROCK inhibitor medium; for cell proliferation rate, dependence on concentration: cells counted Day 4 and Day 9, increasing 3-DG/GO concentration; for periphery of the cell aggregate (effect of promoting cell proliferation): treatment time 24 hours from Day 4, then 10 μM ROCK inhibitor medium, Day 9 vs Day 4
Experimental: Test Example 7 was performed in the same manner as Test Example 6 (aggregate culture 3 of MSCs) except that the culture conditions were changed as follows.
(§1) Medium on Day 0: the above medium containing no ROCK inhibitor
Added reagent: 3-Deoxyglucosone (3-DG) (manufactured by Sigma-Aldrich) • Glyoxal Solution (GO) (manufactured by Sigma-Aldrich) Addition of 3-DG or GO: 3-DG or GO was added after the medium was replaced on the 4th day of culture (Day 4). 3-DG or GO treatment time: 24 hours Medium for replacement:
(§2) Day 2, 4: the above medium containing no ROCK inhibitor
(§3) Day 5, 7, 9: the above medium containing 10 μM ROCK inhibitor
Similarly to Test Example 4, the number of cells was counted on Day 4 (before the treatment) and on Day 9, and the cell proliferation rate was confirmed. As a result, the cell proliferation rate of the MSC cell aggregate was increased by culturing the MSC cell aggregate that had been treated with 3-DG or GO, like the MG treatment.

HepG2 aggregates = assay: Test Example 8: aggregate culture of HepG2; format: cell-based, Human; conditions: MG 1-20 mM for 24 hours from Day 3, then 10 μM ROCK inhibitor medium
Experimental: HepG2 aggregates were cultured under the following culture conditions. The number of cells was counted on Day 3 (before the addition of MG) and on Day 4, and the cell proliferation rate was confirmed.
Medium: HepG2 Hepatocellular Carcinoma Expansion Media, Human (Cellular Engineering Technologies)
Culture vessel: 24 well plate (manufactured by Coming) Culture condition: 37° C., 5% CO2 incubator Amount of medium: 0.5 mL/well Culture period: 6 days
as §1
Day 2, 3: the above medium containing no ROCK inhibitor
Day 4, 6: the above medium containing 10 μM ROCK inhibitor
Seeding density: 1.0×10^4 cells/cm^2 Replacement of medium: 0.5 mL/well, once every two days Added reagent: Methylglyoxal Solution (manufactured by Sigma-Aldrich) Methylglyoxal concentration: 0, 1, 5, 10, 15, 20 mM Addition of MG: MG was added after the medium was replaced on the 3rd day of culture (Day 3). MG treatment time: 24 hours

MSC aggregates = assay: Test Example 4: aggregate culture 1 of mesenchymal stem cells, cell proliferation rate; format: cell-based
Experimental: MSC aggregates were cultured under the following culture conditions. The number of cells was counted on Day 4 (before the addition of MG) and on Day 9. Using the resulting number of cells, the cell proliferation rate was obtained from the following formula.
Medium: Mesenchymal Stem Cell Growth Medium 2 (manufactured by Takara Bio Inc.) Culture vessel: Micro-Space Cell Culture Plate (manufactured by Kuraray Co., Ltd), 24 well plate (manufactured by Corning) Culture condition: 37° C., 5% CO2 incubator Amount of medium: 3 mL/well Seeding density: 1.0×10^5 cell/well Culture period: 9 days
as §1
Replacement of medium: 1.5 mL/well×3, once every two days (Day 5, 7, 9) Medium for replacement:
as §2, §3
Added reagent: Methylglyoxal Solution (product code: M0252, 1.17 g/mL, 16.25 M, manufactured by Sigma-Aldrich) Methylglyoxal concentration: 0, 0.0075, 0.01, 0.0125, 0.015, 0.02 mM Addition of MG: MG was added after the medium was replaced on the 4th day of culture (Day 4). MG treatment time: 24 hours
Cell proliferation rate=(the number of cells on Day 9)/(the number of cells on […])

MSCs (monolayer culture) = assay: Monolayer culture of MSCs under the conditions of Test Example 4; format: cell-based; conditions: monolayer culture instead of aggregate culture; presence or absence of MG and ROCK inhibitor
Experimental: Next, MSCs were cultured under the culture conditions of Test Example 4 except that the MSCs were subjected to monolayer culture instead of aggregate culture.

[2] = system: iPS cell aggregates (iPSCs, D2 strain); assay: Test Example 1: aggregate culture 1 of iPS cells; format: cell-based
Experimental: iPSC aggregates were cultured under the following culture conditions. FIGS. 1A and 1B show the results. Cell: iPSCs (D2 strain, Np43) Medium: StemFit (registered trademark) A[…] (manufactured by Takara Bio Inc.) Culture vessel: 96 well V-bottom plate (MS-9096V manufactured by Sumitomo Bakelite Co., Ltd.) Cell density: 1316 cells/cm^2 (5×10^2 cells/wells) Culture condition: 37° C., 5% CO2 incubator Amount of medium: 150 μl/well Culture period: 7 clays (Methylglyoxal was added once after the medium was replaced on the 4th day of culture (Day 4).) Medium on Day 0: the above medium containing 10 μM ROCK inhibitor Replacement of medium: 150 μl/well Medium for replacement: the above medium containing no ROCK inhibitor Added reagent: Methylglyoxal Solution (product code: […], 1.17 g/mL, 16.25 M, manufactured by Sigma-Aldrich) Methylglyoxal (MG) concentration: 0, 0.1, 1, 10, 100 mM Imaging: photomicrography on the 4th day of culture (Day 4) (before addition of MG) and the 5th, 6th, and 7th day of culture (Day 5, 6, 7) (after addition of MG) FIGS. 1A and 1B show an example of photomicrographs of iPS cell aggregates before the addition of MG (Day 4) and after the addition of MG (Day 5, 6, 7). FIG. 1B is a partially enlarged view of FIG. 1A

MSC cell aggregates [3] = assay: Test Example 5: aggregate culture 2 of MSCs (MG 20 minutes); format: cell-based; conditions: MG 1.25-20 mM, treatment time 20 minutes on Day 4, then 10 μM ROCK inhibitor medium; Day 15 vs Day 4
Experimental: MSC aggregates were cultured under the following culture conditions. […] Medium: Mesenchymal Stem Cell Growth Medium 2 (manufactured by Takara Bio Inc.) Culture vessel: Micro-Space Cell Culture Plate (manufactured by Kuraray Co., Ltd), 24 well plate (manufactured by Corning) Culture condition: 37° C., 5% CO2 incubator Amount of medium: 3 mL/well Seeding density: 1.0×10^5 cell/well Culture period: 15 days Medium on Day 0: the above medium containing no ROCK inhibitor Replacement of medium: 1.5 mL/well×3, once every two days Medium for replacement: Day 2: the above medium containing no ROCK inhibitor Day 4, 6, 8, 10, 12, 14: the above medium containing 10 μM ROCK inhibitor Added reagent: Methylglyoxal Solution (product code: […], 1.17 g/mL, 16.25 M, manufactured by Sigma-Aldrich) Methylglyoxal concentration: 0, 1.25, 2.5, 5, 10, 15, 20 mM Addition of MG: MG was added 20 minutes before the medium was replaced on the 4th day of culture (Day 4). MG treatment time: 20 minutes Imaging: Day 4 (before addition of MG) and Day 15

[4] = system: iPS cell aggregates (iPSCs, D2 strain); assay: Test Example 2: aggregate culture 2 of iPSCs (MG 20 minutes, then ROCK inhibitor medium); format: cell-based; conditions: MG 1.25-20 mM, treatment time 20 minutes on Day 4, then medium with 10 μM ROCK inhibitor; Day 10 vs Day 4
Experimental: Cell: iPSCs (D2 strain, Np17, feeder less) Medium: StemFit (registered trademark) A[…] (manufactured by Takara Bio Inc.) Culture vessel: 96 well V-bottom plate (MS-9096V manufactured by Sumitomo Bakelite Co., Ltd.) Cell density: 200 cells/well Culture condition: 37° C., 5% CO2 Amount of medium: 150 μl/well Culture period: 10 days and (subculture) 5 days (15 days in total) Medium on Day 0: the above medium containing 10 μM ROCK inhibitor Replacement of medium: 75 μl/well (daily) Medium for replacement: Day 4 to 10: the above medium containing 10 μM ROCK inhibitor Day 1 to 3: the above medium containing no ROCK inhibitor Methylglyoxal concentration: 0, 1.25, 2.5, 5, 10, 15, 20 mM Added reagent: Methylglyoxal Solution (product code: […], 1.17 g/mL, 16.25 M, manufactured by Sigma-Aldrich) Addition of MG: MG was added 20 minutes before the medium was replaced on the 4th day of culture (Day 4). MG treatment time: 20 minutes Imaging: video observation with BicStudio (manufactured by NIKON ENGINEERING CO., LTD.) after addition of MG

[5] = system: iPS cell aggregates (iPSCs, D2 strain); assay: Test Example 3: aggregate culture 3 of iPSCs (MG 24 hours, then ROCK inhibitor medium); format: cell-based; conditions: MG 1.25-20 mM, treatment time 24 hours from Day 4, then medium with 10 μM ROCK inhibitor; Day 10 vs Day 4
Experimental: Test Example 3 was performed in the same manner as Test Example 2 (aggregate culture 2 of iPSCs) except that the culture conditions were changed as follows and the procedures shown in FIG. 3 were used. […] Addition of MG: MG was added after the medium was replaced on the 4th day of culture (Day 4). MG treatment time: 24 hours Medium for replacement: Day 4 to 10: the above medium containing 10 μM ROCK inhibitor Day 1 to 3: the above medium containing no ROCK inhibitor

MSC cell aggregates [6] = assay: Test Example 6: aggregate culture 3 of MSCs (MG 24 hours); format: cell-based; conditions: MG 1.25-20 mM, treatment time 24 hours from Day 4, then 10 μM ROCK inhibitor medium; Day 15 vs Day 4
Experimental: Test Example 6 was performed in the same manner as Test Example 5 (aggregate culture 2 of MSCs) except that the culture conditions were changed as follows. […] Addition of MG: MG was added after the medium was replaced on the 4th day of culture (Day 4). MG treatment time: 24 hours Medium for replacement: Day 2, 4: the above medium containing no ROCK inhibitor Day 5, 7, 9, 11, 13, 15: the above medium containing 10 μM ROCK inhibitor

Structure (SMILES)	cell proliferation rate of the MSC cell aggregate (MSC cell aggregates [1])	cell proliferation rate, dependence on concentration (MSC cell aggregates [1])	periphery of the cell aggregate (effect of promoting cell proliferation) (MSC cell aggregates [1])	periphery of the cell aggregate (effect of promoting cell proliferation) (HepG2 aggregates)	cell proliferation rate (MSC aggregates; MG 0.0075-0.02 mM for 24 hours from Day 4, then 10 μM ROCK inhibitor medium, cell count Day 9, without MG (0 mM) 1.2 times)	cell proliferation rate, medium containing ROCK inhibitor versus medium containing no ROCK inhibitor (MSC aggregates; combination of MG and 10 μM ROCK inhibitor compared with MG without ROCK inhibitor)	cell proliferation rate (MSCs (monolayer culture))	cell binding properties in the periphery of the cell aggregate, dependence on MG concentration ([2]; MG 0.1, 1, 10, 100 mM)	cell binding properties in the periphery of the cell aggregate ([2]; MG 0.1-100 mM added once on Day 4, compared to control not treated with MG)	periphery (outer circumferential portion) of the cell aggregate, fibrillation state ([2]; MG 0.1-100 mM added once on Day 4, photomicrographs Day 5, 6, 7, compared to control not treated with MG)	periphery of the cell aggregate (effect of promoting cell proliferation) (MSC cell aggregates [3])	periphery of the cell aggregate (effect of promoting cell proliferation) [4]	periphery of the cell aggregate (effect of promoting cell proliferation) [5]	periphery of the cell aggregate (effect of promoting cell proliferation) (MSC cell aggregates [6])
O=CC(=O)C[C@H](O)[C@H](O)CO [3-DG, 3-Deoxyglucosone]	increased	tended to be higher with an increase in the 3-DG/GO concentration	expand slightly											
O=CC=O [GO, glyoxal]	increased	tended to be higher with an increase in the 3-DG/GO concentration	expand slightly											
CC(=O)C=O [MG, methylglyoxal]				expand slightly	nearly doubled	higher	did not change significantly	tended to be further reduced with an increase in the MG concentration	reduced	became non-fibrillated (unraveled)	expand slightly	expand slightly	expand slightly	expand slightly
